How the values were obtained:
MNK1 = MNK1 (Homo sapiens (Human), UniProt Q9BUB5); test: MNK Biochemical Enzymatic Assay (ADP-Glo), MNK1; details: 10 nM recombinant MNK1, 100 μM substrate peptide, 300 μM ATP; read-out: IC50 Mnk1
Protocol: (§1) Compounds are screened for MNK inhibition using the ADP-Glo kinase assay kit (Promega, catalogue No. V9101). All kinase reactions are performed in Reaction Buffer E (15 mM HEPES pH7.4, 20 mM NaCl, 1 mM EGTA, 10 mM MgCl2, 0.1 mg/ml BGG, and 0.02% Tween-20). […] Final DMSO concentration in each reaction is 1%.
(§2) Kinase reactions are carried out in 96-well half-area white flat-bottom polystyrene plates in a final volume of 25 μl. MNK1/2 enzymes are pre-incubated with compound and peptide substrate for 5 minutes prior to the addition of ATP. After the addition of ATP, kinase reactions are incubated at room temperature for 40 minutes. Reactions are subsequently stopped by the addition of 25 μl of ADP-Glo Reagent and incubating for an additional 40 minutes. The final luminescent signal used for kinase activity readout is produced by the addition of 45 μl of Kinase Detection Reagent (ADP-Glo kit, Promega) and incubating for 40 minutes.

MNK2 = MNK2 (Homo sapiens (Human), UniProt Q9HBH9); test: MNK Biochemical Enzymatic Assay (ADP-Glo), MNK2; details: 3 nM recombinant MNK2, 50 μM substrate peptide, 10 μM ATP
MNK2, sequence (Q9HBH9 whole entry): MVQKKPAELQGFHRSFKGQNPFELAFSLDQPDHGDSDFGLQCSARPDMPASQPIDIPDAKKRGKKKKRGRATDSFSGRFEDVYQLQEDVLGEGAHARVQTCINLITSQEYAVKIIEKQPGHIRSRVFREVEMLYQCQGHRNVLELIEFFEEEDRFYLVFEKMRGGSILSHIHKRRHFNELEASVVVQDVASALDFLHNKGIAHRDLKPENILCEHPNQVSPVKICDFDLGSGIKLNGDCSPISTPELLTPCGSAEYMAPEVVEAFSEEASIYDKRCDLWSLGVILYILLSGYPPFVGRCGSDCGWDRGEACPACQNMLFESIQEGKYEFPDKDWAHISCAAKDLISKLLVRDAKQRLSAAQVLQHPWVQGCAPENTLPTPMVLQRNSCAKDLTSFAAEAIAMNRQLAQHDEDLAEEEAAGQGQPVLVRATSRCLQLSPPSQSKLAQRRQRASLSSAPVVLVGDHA
Protocol: as §1, §2

Phosphorylated eIF4E = test: peIF4E Signaling Cellular Assay (CisBio peIF4E HTRF); format: cell-based; details: cells incubated with compound for 2 hrs at 37° C., 12-point curve
Protocol: Phosphorylated eIF4E is assayed using the CisBio peIF4E HTRF® assay kit (CisBio, catalogue No. 64EF4PEG). Cells are plated in 96-well tissue-culture treated plate in appropriate growth medium (90 μL). Compounds (10×) are diluted using 3-fold serial dilutions in cell culture medium and added to cells. Plates are incubated for 2 hrs at 37° C. The cell supernatant is carefully removed either by aspirating supernatant or by flicking the plate. Immediately 50 μL of supplemented lysis buffer (1×) is added and incubated for at least 30 minutes at room temperature under shaking. After homogenization by pipeting up and down, 16 μL of cell lysate is transferred from the 96-well cell-culture plate to a 384-well small volume white plate. 4 μL of premixed antibody solutions (vol/vol) is prepared in the detection buffer and added. The plate is covered with a plate sealer and incubated overnight at room temperature. The fluorescence emissions at two different wavelengths are read (665 nm and 620 nm) on a Wallac Victor2. Emission ratios are converted into percent inhibitions and imported into GraphPad Prism software. […] IC50 values are determined using a nonlinear regression model available in GraphPad Prism 5.

[1] = Pharmacokinetics, single intravenous bolus administration; format: in vivo; details: rat, plasma, male Sprague Dawley rats, single intravenous bolus 1 mg/kg, N = 3/group, formulation 10% NMP/15% EtOH/35% PEG400/40% D5W (Cpd. 57: 10% DMA/15% EtOH/35% PEG400/40% D5W); for half-life: read-out: T½ (converted); for Vd: read-out: Vss
Protocol: Groups of Balb/c mice or Sprague-Dawley rats (n≥3 per dose group) are administered single doses of test compound. Compounds are formulated either as solutions in 10% N-methylpyrrolidone, 90% polyethyleneglycol 400 or as suspensions in 0.5% methylcellulose in water for oral gavage administration at a nominal dose level of 10 mg/kg. […] For intravenously dosed animals, blood samples are collected at 0.083, 0.25, 0.5, 1, 2, 4, 8, and 24 h post dose. For orally dosed animals, blood samples are collected at 0.25, 0.5, 1, 2, 4, 8, and 24 h post dose. Blood samples are collected from mice either serially via submandibular vein (approximately 0.1 mL each) or terminally via cardiac puncture (approximately 0.5 mL each). Blood samples are collected serially from rats via jugular vein catheter (approximately 0.2 mL each). Each blood sample is collected into a tube that is chilled and contains potassium EDTA as the anticoagulant. Plasma is separated and stored at approximately −80 C until analysis. Following protein precipitation with acetonitrile containing an internal standard, plasma samples are analyzed using a liquid chromatography/high-resolution mass spectrometry (LC-HRMS) method to determine plasma concentrations. Plasma concentration versus time data are subjected to noncompartmental pharmacokinetic analysis using Phoenix™ Winnonlin® (Certara LP) to determine pharmacokinetic parameters, including Area Under the Curve (AUC), Clearance (Cl), Volume of Distribution at Steady-State (Vss), and terminal half-life (T1/2). Data from orally and intravenously dose are highlighted in Tables 3 and 4, respectively.

[2] = Pharmacokinetics, single oral gavage administration; format: in vivo; details: male Sprague Dawley rats, single oral gavage 10 mg/kg, N = 3/group (Cpd. 71 N = 2), formulation 10% NMP/90% PEG400 (Cpd. 57: 10% DMA/90% PEG300); for AUC(0-inf) / Cmax / Tmax / half-life: rat, plasma
Protocol: Groups of Balb/c mice or Sprague-Dawley rats (n≥3 per dose group) are administered single doses of test compound. Compounds are formulated either as solutions in 10% N-methylpyrrolidone, 90% polyethyleneglycol 400 or as suspensions in 0.5% methylcellulose in water for oral gavage administration at a nominal dose level of 10 mg/kg. Compounds are formulated in 10% dimethylisosorbide, 15% ethanol, 35% propylene glycol, and 40% saline (or 40% D5W) for intravenous administration at a nominal dose level of 1 mg/kg. For intravenously dosed animals, blood samples are collected at 0.083, 0.25, 0.5, 1, 2, 4, 8, and 24 h post dose. For orally dosed animals, blood samples are collected at 0.25, 0.5, 1, 2, 4, 8, and 24 h post dose. Blood samples are collected from mice either serially via submandibular vein (approximately 0.1 mL each) or terminally via cardiac puncture (approximately 0.5 mL each). Blood samples are collected serially from rats via jugular vein catheter (approximately 0.2 mL each). Each blood sample is collected into a tube that is chilled and contains potassium EDTA as the anticoagulant. Plasma is separated and stored at approximately −80 C until analysis. Following protein precipitation with acetonitrile containing an internal standard, plasma samples are analyzed using a liquid chromatography/high-resolution mass spectrometry (LC-HRMS) method to determine plasma concentrations. Plasma concentration versus time data are subjected to noncompartmental pharmacokinetic analysis using Phoenix™ Winnonlin® (Certara LP) to determine pharmacokinetic parameters, including Area Under the Curve (AUC), Clearance (Cl), Volume of Distribution at Steady-State (Vss), and terminal half-life (T1/2). Data from orally and intravenously dose are highlighted in Tables 3 and 4, respectively.

MNK1, sequence (Q9BUB5 whole entry): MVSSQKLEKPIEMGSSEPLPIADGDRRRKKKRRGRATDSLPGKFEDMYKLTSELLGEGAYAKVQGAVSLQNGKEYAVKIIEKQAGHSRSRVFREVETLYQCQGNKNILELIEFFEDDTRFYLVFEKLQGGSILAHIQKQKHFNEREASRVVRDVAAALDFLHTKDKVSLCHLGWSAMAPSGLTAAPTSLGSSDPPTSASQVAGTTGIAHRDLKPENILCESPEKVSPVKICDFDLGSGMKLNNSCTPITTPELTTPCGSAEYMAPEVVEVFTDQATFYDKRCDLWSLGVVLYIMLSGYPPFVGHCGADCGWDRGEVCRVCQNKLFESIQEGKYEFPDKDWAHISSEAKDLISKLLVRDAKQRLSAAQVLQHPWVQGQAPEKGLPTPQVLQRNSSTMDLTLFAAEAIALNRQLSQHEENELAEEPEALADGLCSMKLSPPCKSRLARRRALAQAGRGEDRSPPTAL

Row | SMILES | IC50 (MNK1) [nM] | IC50 (MNK2) [nM] | IC50 (Phosphorylated eIF4E) [nM] | AUC(0-inf) [1] [ng·h/mL] | clearance [1] [mL/min/kg] | half-life [1] [h] | Vd [1] [L/kg] | F [2] [%] | AUC(0-inf) [2] [ng·h/mL] | Cmax [2] [ng/mL] | Tmax [2] [h] | half-life [2] [h]
1 | CC1NC(=O)c2ccc(Nc3ncnc4c3CCN4)cc21 (centres unmarked) [Cpd. No. 39, 5-(6,7-dihydro-5H-pyrrolo[2,3-d]pyrimidin-4-ylamino)-3-methyl-isoindolin-1-one] | 10 to 100 | 100 to 10000 | 1000 to 100000 |  |  |  |  |  |  |  |  | 
2 | CC1NC(=O)c2cnc(Nc3ccnc(NC(=O)C4CC4)c3)cc21 (centres unmarked) [Cpd. No. 42, N-(4-((1-methyl-3-oxo-2,3-dihydro-1H-pyrrolo[3,4-c]pyridin-6-yl)amino)pyridin-2-yl)cyclopropanecarboxamide] | < 10 | < 10 | 1000 to 100000 |  |  |  |  |  |  |  |  | 
3 | CC1(C)NC(=O)c2c(Cl)cc(Nc3cc(N)ncn3)cc21 [Cpd. No. 43, 5-((6-aminopyrimidin-4-yl)amino)-7-chloro-3,3-dimethylisoindolin-1-one] | < 10 | < 10 | < 50 |  |  |  |  |  |  |  |  | 
4 | Cc1cc(Nc2ncnc(N)c2C)cc2c1C(=O)NC21CCCCC1 [Cpd. No. 55, 6′-((6-amino-5-methylpyrimidin-4-yl)amino)-4′-methylspiro[cyclohexane-1,1′-isoindolin]-3′-one] |  | 10 to 100 | < 50 | 1060 | 16.6 | 7.34 | 6.56 | 25.0 | 2650 | 425 | 4 | 2.59
5 | COc1c(N)ncnc1Nc1cc(C)c2c(c1)C1(CCCCC1)NC2=O [Cpd. No. 57, 6′-((6-amino-5-methoxypyrimidin-4-yl)amino)-4′-methylspiro[cyclohexane-1,1′-isoindolin]-3′-one] |  | < 10 | < 50 | 1720 | 11.1 | 7.78 | 3.46 | 14.5 | 2490 | 584 | 0.833 | 3.27
6 | Cc1cc(Nc2ncnc(N)c2Cl)cc2c1C(=O)NC21CCCCC1 [Cpd. No. 58, 6′-((6-amino-5-chloropyrimidin-4-yl)amino)-4′-methylspiro[cyclohexane-1,1′-isoindolin]-3′-one] |  | < 10 | < 50 | 491 | 35.3 | 9.44 | 13.2 | 27.9 | 1370 | 417 | 0.417 | 9.15
7 | Cc1cc(Nc2ncnc(N)c2C)nc2c1C(=O)NC21CCCCC1 [Cpd. No. 71, 2′-((6-amino-5-methylpyrimidin-4-yl)amino)-4′-methylspiro[cyclohexane-1,7′-pyrrolo[3,4-b]pyridin]-5′(6′H)-one] |  |  | < 50 | 886 | 19.1 | 4.15 | 3.9 | 63.9 | 5660 | 1140 | 0.5 | 2.9
8 | COc1c(N)ncnc1Nc1cc(C)c2c(n1)C1(CCCCC1)NC2=O [Cpd. No. 72, 2′-((6-amino-5-methoxypyrimidin-4-yl)amino)-4′-methylspiro[cyclohexane-1,7′-pyrrolo[3,4-b]pyridin]-5′(6′H)-one] |  |  | < 50 | 1130 | 14.8 | 8.48 | 4.59 | 24.2 | 2740 | 1380 | 0.667 | 2.75

— patent US10112955B2, “Isoindoline, azaisoindoline, dihydroindenone and dihydroazaindenone inhibitors of Mnk1 and Mnk2” (eFFECTOR THERAPEUTICS, INC., priority 2015, dated 2018)
